# Patent US12011441B2, “Pimobendan for the reduction of heart size and/or the delay of onset of clinical symptoms in patients with asymptomatic heart failure due to mitral valve disease” (Boehringer Ingelheim Vetmedica GmbH, priority 2016, dated 2024)
# Tested on: dogs with MMVD and echocardiographic and radiographic evidence of cardiomegaly
# Text: Vertebral heart sum, another measure of heart size, was obtained at regular intervals—every eight months—from those animals that remained in the study. There are various ways in which this can be compared between groups. The most useful way to summarise and compare the average vertebral heart score in each group for the duration of the study is to generate an “area under the curve” value that represents a single summary statistic for each dog from which more than two measurements were obtained [Matthews J N et al., BMJ 1990, 300(6719): 230-235]. This method has been used previously in veterinary studies [Häggström J et al., J Vet Intern Med 2013, 27(6): 1441-1451].
compound,measurement,setting,value
"COc1ccc(-c2nc3ccc(C4=NNC(=O)CC4C)cc3[nH]2)cc1 (centres unmarked) [pimobendan, 4,5-dihydro-6-[2-(4-methoxyphenyl)-1H-benzimidazol-5-yl]-5-methyl-3(2H)-pyridazinone]",VHS Median,"average vertebral heart score over the duration of the study, placebo 11.90, P = 0.0009",11.54
same,difference in median vertebral heart score vs placebo,"averaged over the entire duration of the study (area under the curve), dogs remaining in the study",approximately 0.35 vertebrae
same,rate or type of potential adverse events observed,"dog, in vivo",no difference between groups
same,safety and tolerability,"dog, in vivo",safe and well tolerated
same,heart size compared to the placebo group,"measured over the first 35 days of the study, P<0.0001",reduction in heart size
